In patent publication US20040162297A1, “Adenosine derivative in polymorph I form” (priority 2001, published 2004):

Assay: stability of the polymorphic form at ambient temperatures
Assay type: physicochemical

- stability at ambient temperatures: particular stability
SMILES: CC(C)(C)c1nnc([C@H]2O[C@@H](n3cnc4c(Nc5ccc(Cl)cc5F)ncnc43)[C@H](O)[C@@H]2O)o1 [Polymorph I, (2S,3S,4R,5R)-2-(5-tert-butyl-[1,3,4]-oxadiazol-2-yl)-5-[6-(4-chloro-2-fluorophenylamino)-9H-purin-9-yl]-tetrahydrofuran-3,4-diol]
